From US20240261375A1, “PHARMACEUTICAL COMPOSITION FOR TREATING OR PREVENTING DISORDER ASSOCIATED WITH ADMINISTRATION OF ANTICANCER AGENT” (LTT BIO-PHARMA CO., LTD., priority 2021, published 2024)
Where two headings read alike, the source gives them in different places.

Assays:
[1] = test system: RAW cells; assay: Toxicity of anticancer agents against RAW cells (CellTiter-Glo viable cell count); assay type: cell-based
Description: RAW cells were seeded on a 96-well plate at 20 000 cells/well (D-MEM high glucose medium containing 10% inactivated FBS). […] The number of viable cells was counted 24 hours later by measuring chemical luminescence by using CellTiter-Glo™ 2.0 Cell Viability Assay (Promega) and a plate reader (Tecan, Infinite M Plex). Cells for four wells were analyzed for each group.

[2] = test system: RAW cells; assay: Active oxygen production in RAW cells (MitoSOX Red); assay type: cell-based
Description: RAW cells were seeded on a 96-well plate for fluorescence at 20 000 cells/well (D-MEM high glucose medium containing 10% inactivated FBS). […] Sixteen hours later, cells were treated with an HBSS solution containing dissolved MitoSOX™ Red Mitochondrial Superoxide Indicator (Invitrogen™) for 30 minutes, and the medium was replaced with D-MEM high glucose medium containing 1% inactivated FBS. Active oxygen production in mitochondria was determined by measuring fluorescence (Ex 510 nm, Em 580 nm) by using a plate reader (Infinite M Plex, Tecan). Cells for four wells were analyzed for each group.

[3] = test system: Large intestine cancer cells (colo320, HCT116); assay: Proliferation of large intestine cancer cells (CCK-8); assay type: cell-based; conditions: OXA alone, 3-fold dilutions from 100 μM, 72 hours; FIG. 6
Description: Large intestine cancer cells (colo320, HCT116) were added to RPM1640 medium (Thermo Fisher Scientific Inc.) containing 10% fetal bovine serum and 100 units/mL penicillin-streptomycin (Gibco BRL) and cultured at 37° C. in a 5% CO2 incubator.
Cells were seeded on a 96-well plate at 10 000 cells/well and treated with a test solution 24 hours later. A test solution containing OXA alone was diluted 3-fold from 100 μM (10 levels) and added to a 96-well plate. A test solution containing OXA+PC-SOD was obtained by adding the same concentrations of OXA to PC-SOD (50 μg/mL) (n=3 per group). After cells were cultured for 72 hours, a CCK-8 solution was added in a volume of 1/10 of the solution in each well, and the mixture was measured at 490 nm of absorbance (Tecan, Tecan Japan). Data were expressed with mean±standard error (SEM). It should be noted that experiment conditions were allowed to be changed as required.

[4] = test system: liver of OXA-treated rats; assay: Pathological assessment of liver disorder caused by oxaliplatin (HE staining); assay type: in vivo, rat; conditions: PC-SOD 1 mg/kg, mangafodipir dose not given, FIG. 5
Description: A liver tissue was collected and fixed with 10% neutral buffered formalin to prepare a paraffin block by using Histos 5 (Milestone) and an embedding center (EG1160, Leica). The sample block was thinly sliced at a thickness of 3 μm by using a microtome (MR2245, Leica) to prepare a slide. The prepared slide was stained by HE staining, enclosed, and observed at 200 and 400-fold magnifications by using the optical microscope function of All-in-One Fluorescence Microscope (BZ-X800, Keyence Corporation). Observation and assessment were performed by observing the whole section. Two to four representative tissue images were randomly taken up, and alteration in the tissue structure, such as inflammation and necrosis, was observed and assessed (Scale bar=200 μm).

[5] = test system: PC12 cells differentiated by NGF; assay: Neurite retraction in NGF-differentiated PC12 cells caused by anticancer agents; assay type: cell-based, rat; conditions: oxaliplatin 20 μM, 24 hours, FIG. 8
Description: Rat adrenal gland pheochromocytoma-derived PC12 cells are known to be differentiated into neuron-like cells having neurites by nerve growth factor (NGF) and are widely used as a nerve cell model. To assess the neurite-protective action of PC-SOD, the effect of PC-SOD in neurite disorder caused by various anticancer agents was analyzed by using PC12 cells differentiated by NGF.
PC12 cells were seeded on a 24-well plate coated with collagen at 5 000 cells/well. […] The images of cells were captured by using a microscope (BZ-X800, Keyence Corporation), and the neurite lengths were measured by using an image analysis software ImageJ (NIH).
(§1) PC12 cells were seeded on a 24-well plate coated with collagen at 5 000 cells/well. […] After neurite elongation, cells were cultured by using differentiation media each containing carboplatin (with a final concentration of 50 μM) alone or carboplatin and PC-SOD (with final concentrations of 10, 20, 50, and 100 μg/mL) for 24 hours. The images of cells were captured by using a microscope (BZ-X800, Keyence Corporation), and the neurite lengths were measured by using an image analysis software ImageJ (NIH).
as §1, with “containing paclitaxel (abbreviated as PTX in the figure of results) alone” for “containing carboplatin”, “of 0.1” for “of 50”, “μM)” for “μM) alone”, “or paclitaxel” for “or carboplatin”, “10,” for “10, 20,”

[6] = anticancer agent alone, 24 hours, FIG. 12-1
[7] = anticancer agent alone, 16 hours, FIG. 13-1

| Compound | number of viable RAW cells [1, 6] | active oxygen production in mitochondria of RAW cells [2, 7] | active oxygen production in mitochondria of RAW cells [2] | further results |
| --- | --- | --- | --- | --- |
| N.N.O=C([O-])C1(C(=O)[O-])CCC1.[Pt+2] [carboplatin] | decreased the number of viable cells dependently on the concentration of the anticancer agent | induced active oxygen production dependently on the concentration of the anticancer agent |  |  |
| N.N.[Cl][Pt][Cl] [cisplatin] |  |  | induced active oxygen production dependently on the concentration of the anticancer agent |  |
| Nc1ccn([C@@H]2O[C@H](CO)[C@@H](O)C2(F)F)c(=O)n1 [gemcitabine] |  |  | induced active oxygen production dependently on the concentration of the anticancer agent | number of viable RAW cells [1]: decreased the number of viable cells dependently on the concentration of the anticancer agent |
| O=C1[O][Pt]2([NH][C@@H]3CCCC[C@H]3[NH]2)[O]C1=O [oxaliplatin] | decreased the number of viable cells dependently on the concentration of the anticancer agent | induced active oxygen production dependently on the concentration of the anticancer agent |  | proliferation of large intestine cancer cells [3]: Suppression of proliferation of large intestine cancer cells caused by OXA was confirmed |
| mangafodipir [reference compound] |  |  |  | necrosis of liver cells caused by OXA [4]: the suppressive effect on necrosis of liver cells caused by OXA was not observed; neurite retraction caused by oxaliplatin ([5]; test substance 5 μg/mL): a weak suppressing tendency was observed; neurite retraction caused by oxaliplatin ([5]; test substance at concentrations higher than 5 μg/mL (up to 50 μg/mL)): no higher retraction suppressing effect was observed |
